Reference: patent US11986542B2, “Composition for enhancing hair fiber properties” (The Procter & Gamble Company, priority 2016, dated 2024)

How the values were obtained:
[1] = Combing force for dry hair, aqueous/ethanol leave-on treatment; conditions: Table 2/FIG. 2; physically damaged virgin hair; aqueous/ethanol leave-on formulation, 2.5% total conditioning agent
Source text: (§1) This double combing apparatus is attached to an Instron Model 5564. The switch is combed 5 times with a fine-tooth comb and hanged onto the Instron load cell. Then, the hair switch is placed in the double comb apparatus. The Instron pulls the hair vertically at a rate of 10 mm/min until the hair switch clears the final comb. The peak force as the switch passes through the top comb is reported.

[2] = Log P (octanol-water partition coefficient)
Source text: “Log P” means octanol-water partition coefficient and is a physical property that describes a chemical's lipophilic and hydrophophilic characteristics. Log P is the logarithm of the ratio of a chemical's concentration in the octanol phase to its concentration in the aqueous phase of a two-phase system at equilibrium. The partition coefficient is a ratio of concentrations of un-ionized compound between the two solutions. Log P=Log 10 (partition coefficient). Partition coefficient=[organic]/[aqueous], where [organic] is the concentration of the compound of interest in the organic solvent (e.g., octanol), and [aqueous] is the concentration of the compound of interest in the water phase.

[3] = Combing force after leave-on hair treatment using neat material; conditions: 0.4 ml neat material on 4 g switch, average of three switches; for Combing force, 1 Wash (gf): after 1 clarifying shampoo wash; for Combing force, 5 Washes (gf): after 5 clarifying shampoo washes
Source text: as §1
The treatment is repeated to two additional switches. The treated hair switches are allowed to rest for 24 hours under controlled temperature and relative humidity conditions (27° C. and 50% RH). After this time period, each hair switch is washed with a clarifying shampoo (see shampoo washing protocol below) and allowed to air dry for 24 hours under controlled temperature and relative humidity conditions (27° C. and 50% RH). The combing force is measured for each switch and an average for the three switches is calculated. […] Linoleic acid • b.

[4] = Combing force for dry hair, aqueous/ethanol treatment; conditions: Table 1/FIG. 1; moderately oxidatively-damaged hair; aqueous/ethanol formulation, 2.5% total conditioning agent; peak force
Source text: A moderately oxidatively-damaged hair switch or physically damaged virgin hair switch (with weight of 4 gram and length of 8 inches) is placed in an apparatus containing two combs separated by a vertical distance of 6 inches. This double combing apparatus is attached to an Instron Model 5564. The switch is combed 5 times with a fine-tooth comb and hanged onto the Instron load cell. Then, the hair switch is placed in the double comb apparatus. The Instron pulls the hair vertically at a rate of 10 mm/min until the hair switch clears the final comb. The peak force as the switch passes through the top comb is reported. […] EtOH/H2O Leave-on Treatments Single material mixtures: 500 mg of a lipid or a lipid enhancing agent is weighed into a 20 mL vial. 19.5 g of 50/50(v/v) ethanol water mixture is then added to the vial and capped. The mixture is then agitated for 30 seconds. Shampoo Washing Protocol: An amount of 0.10 g of clarifying shampoo per gram of hair is spread via a syringe onto separate hair switch. Each application consists of adding shampoo to the hair, milking for 30 seconds followed by rinsing for 30 seconds. Shampoo is then reapplied (0.[…]), milked for 30 seconds and rinsed for 30 seconds. Leave-on Treatments with Aqueous/Ethanolic Lipid Compositions a. […] The combing force is measured for each switch and an average for the three switches is calculated. […]

## CCCCCC/C=C\CCCCCCCC(=O)O [Palmitoleic Acid]
[1]
  Combing Force (gf): 76 gf
[2]; octanol/water
  logP: 6.6

## CCCCCCCCCCCCCCCCCC(=O)O [Stearic Acid, reference compound]
[2]; octanol/water
  logP: 8

## CCCCC/C=C\C/C=C\CCCCCCCC(=O)O [Linoleic Acid, reference compound]
[3]
  Combing force, 1 Wash (gf): 27 gf
  Combing force, 5 Washes (gf): 96 gf
[2]; octanol/water
  logP: 6.4

## CCCCCCCC/C=C\CCCCCCCC(=O)OCC(O)CO (stereo not drawn) [Glyceryl alpha-monooleate]
[4]
  Combing Force (gf): 157 gf
[1]
  Combing Force (gf): 268 gf
[2]; octanol/water
  logP: 6.3

## CCCCCCCC/C=C\CCCCCCCC(=O)OC [Methyl Oleate, reference compound]
[2]; octanol/water
  logP: 8

## CCCCCCCC/C=C\CCCCCCCCCCCC(=O)O [Erucic acid, reference compound]
[2]; octanol/water
  logP: 9

## CCCCCCCC/C=C\CCCCCCCC(=O)O [Oleic acid]
[4]
  Combing Force (gf): 161 gf
[3]
  Combing force, 1 Wash (gf): 24 gf
  Combing force, 5 Washes (gf): 58 gf
[2]; octanol/water
  logP: 7

## Propyleneglycol monooleate [reference compound]
[2]; Table 3
  logP: 7.5

## CCCCCCCC/C=C\CCCCCCCCO [Oleyl Alcohol]
[1]
  Combing Force (gf): 246 gf
[2]; octanol/water
  logP: 7

## CCCCCCCC/C=C\CCCCCCCC(=O)OCCO [Ethyleneglycol monooleate]
[2]; octanol/water
  logP: 6.9
